35 molecules from US20250025459A1, “COVID-19 TREATMENT MEDICINE CHARACTERIZED BY COMBINING 3CL PROTEASE INHIBITOR AND COVID-19 TREATMENT DRUG” (priority 2021, published 2025) can be followed below.

The subject of test [1] is SARS-CoV-2 hCoV-19/Japan/TY/WK-521/2020. Kind of test: Combination effect confirmation test, VeroE6/TMPRSS2 cells, strain WK-521. Type of test: cell-based. The conditions noted are these: for EC50 of single agent: VeroE6/TMPRSS2, 3 days.
Test [2] concerns SARS-CoV-2 hCoV-19/Japan/TY11-927-P1/2021. Put plainly: Combination effect confirmation test, VeroE6/TMPRSS2 cells, strain TY11-927-P1. The conditions noted are these: for EC50: Severe acute respiratory syndrome coronavirus 2, VeroE6/TMPRSS2, 72 h, single agent; for EC50 of single agent: VeroE6/TMPRSS2, 3 days. In kind it is cell-based.
The test system of test [3] is SARS-CoV-2 hCoV-19/Japan/TY7-501/2021. Kind of test: Combination effect confirmation test, VeroE6/TMPRSS2 cells, strain TY7-501. Type of test: cell-based.
Another test relates to SARS-CoV-2. Kind of test: microbe, parasite or virus in culture. In kind it is cell-based. The conditions noted are these: Severe acute respiratory syndrome coronavirus 2, 72 h; VeroE6/TMPRSS2 cells, 100 TCID50/well, 3 days; class symbols.
Another test has as its target SARS-CoV-2 3CL Protease (Severe acute respiratory syndrome coronavirus 2 (2019-nCoV) (SARS-CoV-2), UniProt P0DTD1). Kind of test: biochemical. Type of test: biochemical.
Where [4] appears, read: Severe acute respiratory syndrome coronavirus 2, 72 h, single agent, hCoV-19/Japan/TY/WK-521/2020, VeroE6/TMPRSS2, 1000 TCID50/well, 3 days.
Where [5] appears, read: Severe acute respiratory syndrome coronavirus 2, VeroE6/TMPRSS2, 72 h, single agent, hCoV-19/Japan/TY7-501/2021, […].
The mark [6] stands for this setting: read-out: 50% SARS-CoV-2 3CL protease inhibitory concentration (IC50).
Setting [7] is: recombinant enzyme, RapidFire MS, class symbols, read-out: IC50.
Where [8] appears, read: single agent, hCoV-19/Japan/TY/WK-521/2020.

Where two headings read alike, the source gives them in different places.

A word on the EC50: it is the midpoint of the concentration-response curve. For `Cn1cnc(Cn2c(=O)[nH]/c(=N\c3cc4cn(C)nc4cc3Cl)n(Cc3cc(F)c(F)cc3F)c2=O)n1`, the EC50 in test [1] (setting [4]) amounted to 370 nM; in test [2], 410 nM; in test [3] (setting [5]) it was 500 nM.
In the case of `CN(C)C(=O)COC(=O)Cc1ccc(OC(=O)c2ccc(NC(=N)N)cc2)cc1` [Camostatmesylate, reference compound], the EC50 in test [1] (setting [4]) amounted to 1300 nM.
Molecule `Cc1cncc(-n2c(=O)nc(Nc3cc4cn(C)nc4cc3F)n(Cc3cc(F)c(F)c(F)c3)c2=O)c1` [Compound I-002] came in with an EC50 in the test with SARS-CoV-2 of under 1000 nM.
With `Cc1cncc(-n2c(=O)nc(Nc3cc4cn(C)nc4cc3Cl)n(Cc3cc(F)c(F)c(F)c3)c2=O)c1` [Compound I-003], the EC50 in test [1] (setting [4]) turned out to be 177 nM. For the same molecule, on SARS-CoV-2 3CL Protease (setting [6]), the IC50 came out at 14 nM.
Regarding `Cc1cncc(-n2c(=O)nc(Nc3cc4cn(C)nc4cc3C)n(Cc3cc(F)c(F)c(F)c3)c2=O)c1` [Compound I-004], the EC50 in the test with SARS-CoV-2 fell in the range of 1000 to 10000 nM.
For the molecule `N#Cc1cc(Cn2c(Nc3ccc4nn(CC(F)F)cc4c3)nc(=O)n(-c3cncc4ccccc34)c2=O)ccc1F` [Compound I-009], the concentration giving a half-maximal response (EC50) in the test with SARS-CoV-2 was under 1000 nM.
Regarding `Cc1cncc(-n2c(=O)nc(Nc3ccc4nn(CC(F)F)cc4c3)n(Cc3ccc(F)c(C#N)c3)c2=O)c1` [Compound I-011], in the test with SARS-CoV-2, the EC50 was under 1000 nM.
Consider `Cc1cncc(-n2c(=O)nc(Nc3cc4cn(C)nc4cc3Cl)n(Cc3cc(F)c(F)cc3F)c2=O)c1` [Compound I-012], for which, on SARS-CoV-2 3CL Protease (setting [6]), the IC50 turned out to be 9.1 nM.
Regarding `Cc1cc2nn(C)cc2cc1Nc1nc(=O)n(-c2cncc3ccccc23)c(=O)n1Cc1cc(F)c(F)c(F)c1` [Compound I-013], the IC50 at SARS-CoV-2 3CL Protease (setting [7]) is under 100 nM. Besides, the 50% effective concentration (EC50) in the test on SARS-CoV-2 was in the range of 1000 to 10000 nM.
On to `Cn1cc2cc(Nc3nc(=O)n(-c4cncc5ccccc45)c(=O)n3Cc3cc(F)c(F)c(F)c3)c(Cl)cc2n1` [Compound I-014], for which the 50% effective concentration (EC50) in the test with SARS-CoV-2 was under 1000 nM.
The same measure, in the same setting: the result for `Cn1cc2cc(Nc3nc(=O)n(-c4cncc5ccccc45)c(=O)n3Cc3ccc(F)c(C#N)c3)c(Cl)cc2n1` [Compound I-015] reads under 1000 nM; that for `Cn1cc2cc(Nc3nc(=O)n(-c4cncc5ccccc45)c(=O)n3Cc3cc(F)c(F)c(F)c3)ccc2n1` [Compound I-016], under 1000 nM.
Still for that read-out and setting: for `Cc1cncc(-n2c(=O)nc(Nc3cc4cn(C)nc4cc3F)n(Cc3ccc(F)c(C#N)c3)c2=O)c1` [Compound I-018] the value was under 1000 nM.
With `Cc1cncc(-n2c(=O)nc(Nc3cc4cn(C)nc4cc3C)n(Cc3ccc(F)c(C#N)c3)c2=O)c1` [Compound I-019], the EC50 in the test on SARS-CoV-2 was under 1000 nM.
Molecule `O=c1nc(Nc2cc3cn(CCN4CCOCC4)nc3cc2Cl)n(Cc2cc(F)c(F)c(F)c2)c(=O)n1-c1cncc2ccccc12` [Compound I-020] came in with a 50% effective concentration (EC50) in the test with SARS-CoV-2 of 1000 to 10000 nM.
Same read-out and setting: for `Cn1cnc(Cn2c(=O)nc(Nc3cc4cn(C)nc4cc3Cl)n(Cc3cc(F)c(F)c(F)c3)c2=O)n1` [Compound I-021] the value was under 1000 nM.
Consider `Cc1nc2cc(Cl)c(Nc3nc(=O)n(Cc4ncn(C)n4)c(=O)n3Cc3cc(F)c(F)c(F)c3)cc2n1C` [Compound I-022], for which the concentration giving a half-maximal response (EC50) in the test with SARS-CoV-2 lay within 1000 to 10000 nM.
In the test with SARS-CoV-2, `N#Cc1cc(Cn2c(Nc3cc4cn(C(F)F)nc4cc3Cl)nc(=O)n(-c3cncc4ccccc34)c2=O)ccc1F` [Compound I-024] yielded an EC50 of under 1000 nM.
`Cn1cc2cc(Nc3nc(=O)n(-c4cncc5ccccc45)c(=O)n3Cc3ccc(F)c(C#N)c3)c(F)cc2n1` [Compound I-025] came in with an EC50 in the test with SARS-CoV-2 of under 1000 nM.
Molecule `Cc1cncc(-n2c(=O)nc(Nc3cc4cn(C(F)F)nc4cc3Cl)n(Cc3ccc(F)c(C#N)c3)c2=O)c1` [Compound I-026] gave an EC50 in the test with SARS-CoV-2 of under 1000 nM.
As for `Cc1cc2nn(C)cc2cc1Nc1nc(=O)n(-c2cncc3ccccc23)c(=O)n1Cc1ccc(F)c(C#N)c1` [Compound I-027], the EC50 with SARS-CoV-2 is under 1000 nM.
`Cn1cnc(Cn2c(=O)nc(Nc3cc4cn(CCO)nc4cc3Cl)n(Cc3cc(F)c(F)c(F)c3)c2=O)n1` [Compound I-028] displayed an EC50 with SARS-CoV-2 of 1000 to 10000 nM.
On the same count and under the same terms, for `Cn1cnc(Cn2c(=O)nc(Nc3cc4cn(CC(F)F)nc4cc3Cl)n(Cc3cc(F)c(F)c(F)c3)c2=O)n1` [Compound I-029] the value was under 1000 nM; for `Cn1cnc(Cn2c(=O)nc(Nc3cc4cn(C(F)F)nc4cc3Cl)n(Cc3cc(F)c(F)c(F)c3)c2=O)n1` [Compound I-030], 1000 to 10000 nM.
For the molecule `N#Cc1cc(Cn2c(Nc3cc4cn(CCO)nc4cc3Cl)nc(=O)n(-c3cncc4ccccc34)c2=O)ccc1F` [Compound I-031], the IC50 at SARS-CoV-2 3CL Protease (setting [7]) was under 100 nM. The half-maximal effective concentration (EC50) in the test on SARS-CoV-2 lay in the range of 1000 to 10000 nM.
Regarding `Cc1nc2cc(Cl)c(Nc3nc(=O)n(-c4cncc5ccccc45)c(=O)n3Cc3cc(F)c(F)c(F)c3)cc2n1C` [Compound I-032], the IC50 on SARS-CoV-2 3CL Protease (setting [7]) is under 100 nM. The molecule further returned a concentration giving a half-maximal response (EC50) in the test on SARS-CoV-2 of 1000 to 10000 nM.
`CC(=O)NCCn1cc2cc(Nc3nc(=O)n(-c4cncc5ccccc45)c(=O)n3Cc3cc(F)c(F)c(F)c3)c(Cl)cc2n1` [Compound I-033] returned an EC50 in the test on SARS-CoV-2 of 1000 to 10000 nM.
On to `O=c1nc(Nc2ccc3nn(CC(F)F)cc3c2)n(Cc2cc(F)c(F)c(F)c2)c(=O)n1-c1cncc2ccccc12` [Compound I-034], for which the EC50 with SARS-CoV-2 is under 1000 nM.
For `O=c1nc(NO)ccn1[C@@H]1O[C@H](CO)[C@@H](O)[C@H]1O` [EIDD-1931, reference compound], the EC50 in test [1] (read-out: EC50 of single agent) was 690 nM; in test [3] (read-out: EC50 of single agent), 1500 nM.
With `CC(C)(C)[C@H](NC(=O)C(F)(F)F)C(=O)N1C[C@H]2[C@@H]([C@H]1C(=O)N[C@H](C#N)C[C@@H]1CCNC1=O)C2(C)C` [PF-07321332, reference compound], in test [1] (setting [4]), the half-maximal effective concentration (EC50) is 7100 nM.
With `CCC(CC)COC(=O)[C@H](C)N[P@](=O)(OC[C@H]1O[C@@](C#N)(c2ccc3c(N)ncnn23)[C@H](O)[C@@H]1O)Oc1ccccc1` [Remdesivir, reference compound], the EC50 turned out to be 2500 nM in test [1] (Severe acute respiratory syndrome coronavirus 2, VeroE6/TMPRSS2, 72 h, single agent, hCoV-19/Japan/TY/WK-521/2020, […]); 2000 nM in test [2]; 2300 nM in test [3] (setting [5]).
For the molecule “Bebtelovimab: anti-SARS-CoV-2 monoclonal antibody”, the “EC50 of single agent” value in test [2] is given as 0.0231(μg/mL).
In the case of “Casirivimab: anti-SARS-CoV-2 monoclonal antibody”, the “EC50 of single agent” value in test [1] (setting [8]) was 0.077 [μg/mL].
Take “Imdevimab: anti-SARS-CoV-2 monoclonal antibody”: the “EC50 of single agent” value in test [1] (setting [8]) is 0.047 [μg/mL].
As for “Sotrovimab: anti-SARS-CoV-2 monoclonal antibody”, the “EC50 of single agent” value in test [2] is 1.06(μg/mL).
